{"source": "patent US11655215B2", "about": "“Photostabilizing compounds, compositions, and methods” (ELC MANAGEMENT LLC, priority 2018, dated 2023)", "assay_type_in_all_cases": "physicochemical", "key": {"[1]": {"test": "PpIX singlet excited state quenching (TCSPC fluorescence lifetimes)", "conditions": "acetonitrile, excitation 496 nm, fluorescence at 630 nm; slope of FIG. 5", "protocol": "(§1) The acetonitrile solutions of PpIX at a concentration optimal for light absorption and Compound 1 at various concentration were measured on OB920 TR-SPC (Edinburgh Analytical Instruments) by time-correlated single photon counting (TCSPC) using a pulsed LED (496 nm) for excitation (PicoQuant) for the corresponding fluorescence lifetimes. The fluorescence signal was collected at 630 nm."}, "[2]": {"test": "Fluorescence quenching of retinol (TCSPC fluorescence lifetimes)", "conditions": "THF, retinol 0.2 mM, excitation 335 nm, fluorescence at 483 nm; slope of FIG. 2", "protocol": "as §1, with “THF” for “acetonitrile”, “retinol” for “PpIX”, “0.2 mM” for “a concentration optimal for light absorption”, “(335 nm, 5 MHz)” for “(496 nm)”, “483” for “630”"}, "[3]": {"test": "PpIX triplet state quenching (transient absorption)", "conditions": "Argon saturated acetonitrile, 532 nm excitation, transient absorbance at 630 nm; slope of FIG. 4", "protocol": "The Argon saturated acetonitrile solutions of Protoporphyrin IX (PpIX) at a concentration optimal for light absorption and Compound 1 at various concentrations were measured for transient absorption on a homebuilt system (Y. Yagci, S. Jockusch and N. J. Turro, Macromolecules, 2007, 40, 4481-4485; hereby incorporated by reference in its entirety). Triplet lifetimes were measured at 532 nm (7 ns pulse length) and the transient absorbance was monitored at 630 nm."}, "[4]": {"test": "Singlet oxygen quenching rate constant in acetonitrile (phosphorescence lifetime)", "conditions": "air saturated acetonitrile, Pp-MeIX, 1O2 phosphorescence lifetime at 1270 nm; slope of FIG. 9B", "protocol": "(§2) Singlet oxygen phosphorescence measurements of the air saturated acetonitrile solutions of the dimethyl ester derivative of PpIX (Pp-MeIX) at the concentration optimal for light absorption and Compound 1 at various concentrations were performed on a modified Fluorolog-3 spectrometer (HORIBA Jobin Yvon) in conjunction with a NIR sensitive photomultiplier tube (H102330A-45, Hamamatsu). A Spectra Physics GCR-150-30 Nd:YAG laser (532 nm, ca. 5 mJ per pulse, 7 ns) was used for pulsed excitation to collect ^1O2 phosphorescence decay traces at 1270 nm which were stored on a digital oscilloscope (TDS 360 from Tektronics)."}, "[5]": {"test": "Singlet oxygen generation quenching, Stern-Volmer, Pp-MeIX in CDCl3", "conditions": "air saturated CDCl3, Pp-MeIX, 532 nm excitation, 1O2 phosphorescence at 1270 nm; slope of FIG. 8B", "protocol": "as §2, with “CDCl3” for “acetonitrile”, “Tektronics). The Stern-Volmer plots of singlet oxygen phosphorescence were illustrated in FIG. 8B. The Stern-Volmer constant Ksv was calculated from the slope of the plot in FIG. 8B to be 14±1 M^−1, which is a direct measurement of the singlet oxygen suppression efficiency of Compound 1.” for “Tektronics).”"}, "[6]": {"test": "Keto-Avobenzone triplet state quenching (laser flash photolysis, transient absorption)", "conditions": "deoxygenated acetonitrile, avobenzone 0.25 mM, 266 nm flash photolysis, monitored at 380 nm; slope of FIG. 3", "protocol": "The deoxygenated acetonitrile solutions of avobenzone at 0.25 mM and Compound 1 at various concentrations were measured for transient absorption on a homebuilt system (Y. Yagci, S. Jockusch and N. J. Turro, Macromolecules, 2007, 40, 4481-4485; hereby incorporated by reference in its entirety). Keto-Avobenzone was generated by photolysis of enol-Avobenzone at 350 nm. Laser flash photolysis of keto-Avobenzone was conducted at 266 nm with 5 ns pulse width as shown below:\nThe decay traces of the triplet-absorption of keto-Avobenzone was monitored at 380 nm."}, "[7]": {"test": "Singlet oxygen generation quenching, Stern-Volmer, Pp-MeIX in acetonitrile", "conditions": "air saturated acetonitrile, 532 nm excitation, 1O2 phosphorescence at 1270 nm, slope of FIG. 7", "protocol": "as §2, with “Tektronics). The Stern-Volmer plots of singlet oxygen phosphorescence were illustrated in FIG. 7. The Stern-Volmer constant Ksv was calculated from the slope of the plot in FIG. 7 to be 57±2 M^−1, which is a direct measurement of the singlet oxygen suppression efficiency of Compound 1.” for “Tektronics).”"}}}
{"smiles": "CCCCC(CC)COC(=O)/C(C#N)=C1/c2ccccc2-c2cccnc21", "note": "(stereo not shown) [Compound 1]", "values": [{"measurement": "bimolecular quenching rate constant Kq of quenching of PpIX fluorescence (singlet excited state)", "setting": "[1]", "result": "2.5±0.1×10^9 M^−1s^−1"}, {"measurement": "bimolecular quenching rate constant Kq of quenching of retinol fluorescence", "setting": "[2]", "result": "(9.0±0.3)×10^9 M^−1s^−1"}, {"measurement": "quenching rate constant kq of PpIX triplet states", "setting": "[3]", "result": "2.7±0.1×10^7 M^−1s^−1"}, {"measurement": "bimolecular quenching rate constant kq of singlet oxygen quenching", "setting": "[4]", "result": "1.5±0.1×10^5 M^−1s^−1"}, {"measurement": "Stern-Volmer constant Ksv (singlet oxygen suppression efficiency)", "setting": "[5]", "result": "14 ± 1", "unit": "M⁻¹"}, {"measurement": "quenching rate constant kq of keto-Avobenzone triplet states", "setting": "[6]", "result": "(3.5±0.2)×10^9 M^−1s^−1"}, {"measurement": "Stern-Volmer constant Ksv (singlet oxygen suppression efficiency)", "setting": "[7]", "result": "57 ± 2", "unit": "M⁻¹"}]}
